Results taken from ChEMBL document CHEMBL3861987, “Synthesis, antitumor evaluation and 3D-QSAR studies of [1,2,4]triazolo[4,3-b][1,2,4,5]tetrazine derivatives” (Bioorg Med Chem Lett, 2016).
pIC50: −log10 of the molar value.

Key:
MCF-7 (Homo sapiens) = test: Antiproliferative activity against human MCF-7 cells after 72 hrs by MTT assay; settings: MCF-7, 72 h; for pIC50: read-out: IC50; for IC50: read-out: pIC50 (converted)
[1] = Cytotoxicity against human MCF7 cells assessed as reduction in cell viability after 72 hrs by MTT assay; format: functional, cell-based; settings: MCF7, 72 h
[2] = Cytotoxicity against human HL60 cells assessed as reduction in cell viability after 72 hrs by MTT assay; format: functional, cell-based; settings: HL-60, 72 h
[3] = Cytotoxicity against human Bewo cells assessed as reduction in cell viability after 72 hrs by MTT assay; format: functional, cell-based
[4] = Solubility of compound in DMSO; format: physicochemical

Compound | pIC50 (MCF-7 (Homo sapiens)) | IC50 (MCF-7 (Homo sapiens)) [µM] | solubility [4] | pIC50 [1] | pIC50 [2] | pIC50 [3]
OCCNc1nnc2nncn2n1 | 4.94 | 11.6 | – | – | – | –
C1CCC(c2nnc3nnc(N4CCCC4)nn23)CC1 | – | 37.7 | – | 4.42 | 4.62 | 4.66
CC(=O)N1CCN(c2nnc3nncn3n2)CC1 | 4.86 | 13.9 | – | – | – | –
c1ccc(CCNc2nnc3nncn3n2)cc1 | 5.91 | 1.24 | – | – | – | –
Clc1ccc(-c2nnc3nnc(N4CCCC4)nn23)c(Cl)c1 | – | 19.6 | – | 4.71 | 5.06 | 5.09
Clc1ccc(-c2nnc3nnc(N4CCOCC4)nn23)c(Cl)c1 | – | 19.3 | – | 4.71 | 5.32 | 5.77
CC(C)(C)C(=O)N1CCN(c2nnc3nncn3n2)CC1 | 5.26 | 5.51 | – | – | – | –
O=C(C1CCCCC1)N1CCN(c2nnc3nncn3n2)CC1 | 5.90 | 1.26 | – | – | – | –
COc1ccc(-c2nnc3nnc(N4CCCCC4)nn23)cc1 | – | – | – | < 4.00 | 4.89 | < 4.00
c1nnc2nnc(NC3CCCCC3)nn12 | 5.45 | 3.52 | – | – | – | –
CCCCNc1nnc2nncn2n1 | 4.86 | 13.7 | – | – | – | –
Nc1nnc2nncn2n1 | 4.33 | 46.5 | – | – | – | –
O=C(Cc1ccccc1)N1CCN(c2nnc3nncn3n2)CC1 | 5.51 | 3.08 | – | – | – | –
Fc1ccc(-c2nnc3nnc(N4CCOCC4)nn23)cc1 | – | 32.9 | – | 4.48 | 4.54 | 5.33
CC(C)COC(=O)N1CCN(c2nnc3nncn3n2)CC1 | 5.27 | 5.38 | – | – | – | –
Cc1nnc2nnc(N3CCOCC3)nn12 | – | 38.9 | – | 4.41 | 5.34 | 5.23
c1ccc(CN2CCN(c3nnc4nncn4n3)CC2)cc1 | 4.56 | 27.3 | – | – | – | –
O=C(c1ccc(Cl)cc1)N1CCN(c2nnc3nncn3n2)CC1 | 4.89 | 12.9 | – | – | – | –
O=[N+]([O-])c1ccc(-c2nnc3nnc(N4CCOCC4)nn23)cc1 | – | – | – | < 4.00 | 5.24 | < 4.00

Compound | pIC50 (MCF-7 (Homo sapiens)) | IC50 (MCF-7 (Homo sapiens)) [µM] | solubility [4] | pIC50 [1] | pIC50 [2] | pIC50 [3]
CCC(=O)N1CCN(c2nnc3nncn3n2)CC1 | 4.83 | 14.8 | – | – | – | –
O=[N+]([O-])c1ccc(-c2nnc3nnc(N4CCCC4)nn23)cc1 | – | – | – | < 4.00 | < 4.00 | < 4.00
c1nnc2nnc(NC3CCCC3)nn12 | 4.05 | 88.1 | – | – | – | –
CCCNc1nnc2nncn2n1 | 4.70 | 19.8 | – | – | – | –
O=[N+]([O-])c1ccc(-c2nnc3nnc(N4CCCCC4)nn23)cc1 | – | – | – | < 4.00 | 6.21 | < 4.00
CCCCCC(=O)N1CCN(c2nnc3nncn3n2)CC1 | 5.28 | 5.26 | – | – | – | –
CC(C)(C)c1nnc2nnc(N3CCCC3)nn12 | – | 55 | – | 4.26 | < 4.00 | 4.90
O=C(c1ccc([N+](=O)[O-])cc1)N1CCN(c2nnc3nncn3n2)CC1 | 5.34 | 4.53 | – | – | – | –
c1nnc2nnc(N3CCCCC3)nn12 | 4.57 | 27.2 | – | – | – | –
CCCCC(=O)N1CCN(c2nnc3nncn3n2)CC1 | 5.56 | 2.75 | – | – | – | –
CN1CCN(c2nnc3nncn3n2)CC1 | 4.67 | 21.6 | – | – | – | –
CCCCCc1nnc2nnc(N3CCCC3)nn12 | – | 42.9 | – | 4.37 | 4.37 | 4.55
Cc1ccc(C(=O)N2CCN(c3nnc4nncn4n3)CC2)cc1 | 4.80 | 15.9 | – | – | – | –
CCCC(=O)N1CCN(c2nnc3nncn3n2)CC1 | 5.16 | 6.92 | – | – | – | –
CC(C)c1nnc2nnc(N3CCCC3)nn12 | – | 46.8 | – | 4.33 | 4.15 | 5.46
CCc1nnc2nnc(N3CCCC3)nn12 | – | 47 | – | 4.33 | 4.33 | 5.30
Cc1nnc2nnc(N3CCCC3)nn12 | – | 44.9 | – | 4.35 | 4.53 | 5.27
COc1ccc(-c2nnc3nnc(N4CCOCC4)nn23)cc1 | – | – | – | < 4.00 | 4.41 | 5.05
O=C(c1ccccc1)N1CCN(c2nnc3nncn3n2)CC1 | 5.08 | 8.38 | – | – | – | –

More lines, main results first:

pIC50 (MCF-7 (Homo sapiens)) | IC50 (MCF-7 (Homo sapiens)) [µM] | solubility [4] | Compound | pIC50 [1] | pIC50 [2] | pIC50 [3]
– | 17.6 | – | Cc1cc(C)n(-c2nnc3nnc(C(C)(C)C)n3n2)n1 | 4.75 | 6.14 | 6.14
– | 36.1 | – | CCc1nnc2nnc(-n3nc(C)cc3C)nn12 | 4.44 | 6.09 | 5.79
– | 13.6 | – | Cc1cc(C)n(-c2nnc3nnc(-c4ccccc4)n3n2)n1 | 4.86 | 4.92 | 4.63
– | – | Insoluble | c1ccc(-c2nnc3nnc(N4CCCC4)nn23)cc1 | < 4.00 | < 4.00 | < 4.00
– | – | Insoluble | Fc1ccc(-c2nnc3nnc(N4CCCC4)nn23)cc1 | < 4.00 | 5.34 | < 4.00
– | 19.5 | – | Cc1cc(C)n(-c2nnc3nnc(-c4ccccc4Cl)n3n2)n1 | 4.71 | 4.13 | 5.49
– | 8.87 | – | c1ccc(-c2nnc3nnc(N4CCOCC4)nn23)cc1 | 5.05 | 4.52 | 5.25
– | 36.2 | – | Cc1ccc(-c2nnc3nnc(-n4nc(C)cc4C)nn23)cc1 | 4.44 | < 4.00 | 5.12
– | 54.8 | – | Cc1cc(C)n(-c2nnc3nnc(Cc4ccccc4)n3n2)n1 | 4.26 | 5.58 | 5.64
– | 33.7 | – | Cc1cc(C)n(-c2nnc3nnc(C(C)C)n3n2)n1 | 4.47 | 5.94 | 5.63
– | 6.85 | – | Cc1cc(C)n(-c2nnc3nnc(-c4ccc([N+](=O)[O-])cc4)n3n2)n1 | 5.16 | < 4.00 | 5.14
– | 12.8 | – | Cc1cc(C)n(-c2nnc3nnc(C4CCCCC4)n3n2)n1 | 4.89 | 6.17 | 5.17
– | 17.8 | – | Cc1cc(C)n(-c2nnc3nnc(C)n3n2)n1 | 4.75 | 6.37 | 5.58
– | 29.6 | – | Clc1ccccc1-c1nnc2nnc(N3CCCC3)nn12 | 4.53 | 5.58 | 5.52
– | 41.4 | – | Fc1ccc(-c2nnc3nnc(N4CCCCC4)nn23)cc1 | 4.38 | 4.51 | 5.48
– | 13.1 | – | Clc1ccc(-c2nnc3nnc(N4CCOCC4)nn23)cc1 | 4.88 | 6.20 | 5.39
– | 22 | – | CCCCCc1nnc2nnc(-n3nc(C)cc3C)nn12 | 4.66 | 5.98 | 5.55
– | 16.7 | – | COc1ccc(-c2nnc3nnc(-n4nc(C)cc4C)nn23)cc1 | 4.78 | < 4.00 | 4.74
– | 5.57 | – | Cc1cc(C)n(-c2nnc3nnc(-c4ccc(Cl)cc4)n3n2)n1 | 5.25 | < 4.00 | 4.65
– | 14.9 | – | Clc1ccccc1-c1nnc2nnc(N3CCOCC3)nn12 | 4.83 | 4.88 | 5.50
